Data from patent US20090233993A1, “COMPOSITIONS AND METHODS FOR INHIBITING GSK3 ACTIVITY AND USES THEREOF” (Burnham Institute for Medical Research, priority 2008, published 2009).

How the values were obtained:
PKA = PKA inhibitor H89 treatment of FG01-transfected N2aSwe cells; format: cell-based, mouse; settings: H89 2 μM, 4 hrs, FG01-transfected N2a/Swe cells
Protocol: After 48 hr incubation, cell media were changed to Opti-MEM (Invitrogen) containing DMSO or a PKA activity inhibitor H89 (2 μM) and cells were incubated for additional 4 hrs. The cell media were used for Aβ immunoprecipitation-Western blotting and cell lysates were subjected to Western blotting for p-CREB (substrate for PKA) and p-GSK3β. As shown, inhibiting PKA activity with H89 prevented serine phosphorylation of CREB and GSK3β by FG01.
N2aSwe cells were transfected with control vector or FG01 and then equally split. Four hours before collection, cells were treated with the GSK-3 inhibitor lithium chloride (5 mM) or sodium chloride (5 mM, as control). Alternatively, cells were treated with a PKA inhibitor H89 at 10 μM or with DMSO for control.

FG01 = FG01 RNA interference in N2aSwe cells; format: cell-based, mouse
Description: Cells were collected for mRNA extraction, reverse-transcription, and PCR amplification with FG01 specific primers to study the knockdown efficiency (upper panel), n=3. Alternatively, cells were lysed and cell lysates subjected to Western blotting for p-CREB, CREB, p-GSK3β, and GSK3β. Aβ in conditioned media was subjected to immunoprecipitation-Western blotting (lower panels). As shown, knockdown of FG01 coincided with a concomitant decrease in GSK3β phosphorylation (inactivation). **: p<0.01. […] Moreover, as PKA is a cAMP-dependent protein kinase, FG01 is likely having this effect through adenylyl cyclase (AC) activation of cAMP.
The mouse FG01 siRNA used was: 5′-[…]-3′ (SEQ ID NO:20). The control siRNA was from Invitrogen. siRNA was transfected into N2a cells using Lipofectamine RNAiMAX reagent (Invitrogen), following the manufacturer's protocol. After FG01 RNA interference, total RNA was extracted from N2a cells by Trizol reagent (Invitrogen). After reverse transcription into first strand cDNA using standard conditions, samples were analyzed independently by real-time PCR using an iCycler iQ with SYBR green supermix (Bio-Rad). The FG01 primer pair used for amplification was: 5′: […] (SEQ ID NO:21) and 3′: […] (SEQ ID NO:22). A pair of β-actin primers served as controls (Zhang et al., 2007).

[1] = downregulation of endogenous FG01 in N2aSwe cells

Molecule: O=S(=O)(NCCNC/C=C/c1ccc(Br)cc1)c1cccc2cnccc12 [H89, reference compound]
- serine phosphorylation of CREB by FG01 (PKA): prevented
- serine phosphorylation of GSK3β by FG01 (PKA): prevented

Molecule: FG01 siRNA: mouse FG01 siRNA 5′-UACUGUUUGUCAUGCCACUUCUGAU-3′ (SEQ ID NO:20) (listed as RNA, chemistry not given here)
- Aβ generation (FG01; [1]): increased
- CREB phosphorylation (FG01; [1]): dramatically reduced
- GSK-3 activity (FG01; [1]): increased
- GSK3β phosphorylation (inactivation) (FG01; knockdown of FG01 in N2a/Swe cells vs scramble siRNA): decrease
